# Measurements as given in patent US20070123699A1, “Peptide conjugate useful for cell nucleus molecular imaging and tumor therapy” (priority 2002, published 2007).
# Key:
# [1] = system: DU-145 prostate cancer cells; test: MRI: DU-145 cell uptake and efflux of Gd^3+ conjugates (T1-weighted signal, relaxivity); format: cell-based, human
# Description: (I) MRI: DU-145 Cell Uptake of the CNN—Gd^3+-Complex and CNRN—Gd^3+-Complex Compared to that of Magnevist®
# DU-145 cells were harvested and divided into tubes (Falcon®, Becton Dickinson USA, Cat. No.: 35.2096) (Cell No.: 40×10^6 cells per tube). The CNN—Gd^3+-complex (Table 1, #1552a), the CNRN—Gd^3+-complex (Table 1, #1552b) and the Magnevist® were each dissolved in MEM in a concentration of 0.5 mM and were then incubated for 10, 20, 30 minutes up to 3 hours. […]
# MR imaging used a 1.5-T whole body Siemens Magnetom Vision Plus with a standard circular polarized head coil. […] T1 and T2 relaxation-times within the pellets of the three tubes (CNN—Gd^3+, CNRN—Gd^3+, Magnevist) were measured to evaluate the intracellular relaxivity of the respective contrast agents (R=1/T1). The T1-relaxation time was measured by means of an inversion-recovery-sequence (TR: 5000 ms/TE: 76 ms/TI: 25-4000 ms, 17 different TI-values, scan-time 15×25 sec, FOV: 160 mm×160 mm, Matrix: 132×256, slice thickness: 7 mm, pixel size: 1.21×0.63 mm). T2 relaxation-time was measured by a multi-echo-sequence (TR: 5000 ms/16 TE-values: 30 ms-245 ms, FOV: 250 mm×250 mm, Matrix: 256×256, slice thickness: 5 mm, pixel size: 0.98×0.98 mm, scan time: 21 min 21 sec). […]
# [2] = i.v. administered alkylating drug, brain tumor; cited from earlier work
Compound,"MRI signal change above that of DU-145 cells incubated solely in MEM ([1]; DU-145 cells, 0.5 mM, T1-weighted MRI)",relaxivity R (R=1/T1) within the DU-145 cell pellets ([1]; after incubation with contrast agent 0.5 mM),fraction of drug in the blood passing the blood-brain barrier [2]
"CNC[C@H](O)[C@@H](O)[C@H](O)[C@H](O)CO.CNC[C@H](O)[C@@H](O)[C@H](O)[C@H](O)CO.O=C([O-])CN(CCN(CC(=O)[O-])CC(=O)O)CCN(CC(=O)[O-])CC(=O)O.[Gd+3] [Magnevist, reference compound]",no signal change,0.00069,
Cn1nnc2c(C(N)=O)ncn2c1=O [Temodal],,,about 30%
